{"source": "PubChem BioAssay AID504672", "about": "(Sanford-Burnham Center for Chemical Genomics, 2011)", "note": "pIC50: −log10 of the molar value. Active and inactive are the calls of the source. Cut-off read from the data, not from the text of the source: active = IC50 below about 71 µM; inactive = the rest."}
{"system": "S. cerevisiae tim10 strain, luminescence counterscreen", "test": "signal inhibition in TIM10 yeast counter-screen, dose response, counter-screen for tim23-1 inhibitor project, luminescence, S. cerevisiae, uHTS hits (AID 504672);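 note: yeast grew roughly 22 hours at 25 °C before the luminescence read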"}
{"smiles": "Cn1c(-c2sc3ccccc3c2Cl)n[nH]c1=S", "pIC50": 5.24}
{"smiles": "O=C1NC(=S)SC1=C1CCCCCC1", "pIC50": 4.85}
{"smiles": "O=C(NCCCc1ccccc1)c1c(O)nc2sccn2c1=O", "pIC50": 5.39}
{"smiles": "CCOC(=O)c1sc(=NC(=O)c2ccco2)n(C)c1C", "pIC50": 4.33}
{"smiles": "O=C(NC(=S)NC(=O)c1ccccc1F)c1ccccc1F", "pIC50": 5.08}
{"smiles": "COC(=O)c1c(-c2ccc(S(C)(=O)=O)cc2)sc2ccc(OC)cc12", "pIC50": 4.94}
{"smiles": "N=c1c2c(-c3ccccc3)c(-c3ccccc3)n(Cc3ccco3)c2ncn1Cc1ccco1", "pIC50": 4.84}
{"smiles": "CCn1c(N2CCN(S(=O)(=O)c3ccc(OC)cc3)CC2)nc2ccccc21", "pIC50": 4.24}
{"smiles": "c1ccc(Nc2nc(-c3ccccc3)nc3ccccc23)cc1", "pIC50": 5.17}
{"smiles": "Cc1oc2cc(O)cc(O)c2c(=O)c1-c1ccc2c(c1)OCCCO2", "pIC50": 4.97}
{"smiles": "CCSc1ncc(/C=N/Nc2ccc(Cl)cc2)n1C", "pIC50": 4.96}
{"smiles": "CCOC(=O)c1c(NC(=O)CSc2nnnn2-c2ccc(OC)cc2)sc(C)c1C", "pIC50": 4.94}
{"smiles": "COC(=O)c1ccc2nc(NC(=O)C3CC3)sc2c1", "pIC50": 4.82}
{"smiles": "COc1ccc2c(c1)sc1nc(-c3ccccc3)cn12", "pIC50": 4.69}
{"smiles": "CSC1=N/C(=C\\c2ccc(C)cc2)C(=O)S1", "pIC50": 4.62}
{"smiles": "N#C/C(=C\\c1ccc(Cl)cc1)C(=O)NC1CC1", "pIC50": 5.01}
{"smiles": "CC(C)(C)c1csc(NC(=O)c2ccc(Cl)s2)n1", "pIC50": 4.61}
{"smiles": "Oc1ccc(/C=N/Nc2cccc(Cl)n2)c(O)c1", "pIC50": 4.83}
{"smiles": "CC(C)n1ncc2c(C(=O)NCC(=O)Nc3ccccc3Br)cc(C3CC3)nc21", "pIC50": 4.56}
{"smiles": "c1ccc2[nH]c(CSc3nc4ccccc4o3)nc2c1", "pIC50": 4.73}
{"smiles": "O=C1NN=C(c2ccc(Br)cc2)CC1c1ccc(Cl)cc1", "note": "(stereo unspecified)", "pIC50": 4.63}
{"smiles": "COc1ccc(C(C[N+](=O)[O-])c2c(-c3ccccc3)cc3ccccn23)cc1OC", "note": "(stereo unspecified)", "pIC50": 4.68}
{"smiles": "O=C(Nc1nccs1)c1ccc(Cl)s1", "pIC50": 4.88}
{"smiles": "CC(C)Cn1cnc2c(c(-c3ccccc3)c(-c3ccccc3)n2Cc2ccco2)c1=N", "pIC50": 4.37}
{"smiles": "CN(C)/C=C1/C=C(c2ccccc2)OC1=O", "pIC50": 4.43}
{"smiles": "Cc1ccccc1OCCCSc1nc2ccccc2[nH]1", "pIC50": 5.19}
{"smiles": "Cn1c(/C(C#N)=C/c2ccncc2)nc2ccccc21", "pIC50": 4.46}
{"smiles": "Cn1c(C=O)c(C#Cc2ccccc2)c2ccccc21", "pIC50": 5.26}
{"smiles": "O=C(N/N=C/C(Br)=C/c1ccccc1)c1cccs1", "pIC50": 5.07}
{"smiles": "COc1cccc(CNn2c(-c3cccc(C)c3)nc3ccccc3c2=O)c1O", "pIC50": 4.89}
{"smiles": "O=Cc1cn(CCOc2ccccc2F)c2ccccc12", "pIC50": 4.65}
{"smiles": "Cc1ccc2occ(/C=N/NC(=O)c3ccccc3Br)c(=O)c2c1", "pIC50": 4.76}
{"smiles": "Cc1ccc2nc(-c3ccc(N)cc3)sc2c1", "pIC50": 4.76}
{"smiles": "O=C(Nc1nc(-c2cccs2)c(-c2ccccc2)s1)c1ccco1", "pIC50": 4.54}
{"smiles": "Cc1ccc2nc(NC(=O)Cn3nc(C)c([N+](=O)[O-])c3C)sc2c1", "pIC50": 4.74}
{"smiles": "O=C(N/N=C/c1ccc(Br)s1)c1c[nH]c2ccccc12", "pIC50": 4.88}
{"smiles": "NNC(=O)c1nc(-c2ccccc2)cc(-c2ccccc2)n1", "pIC50": 4.90}
{"smiles": "Cc1nc2scc(C)n2c(=O)c1S(=O)(=O)Nc1ccc(N2CCOCC2)cc1", "IC50": "> 100 µM (inactive)"}
{"smiles": "CC1=C(C)/C(=N/OC(=O)c2cccc([N+](=O)[O-])c2)C=CC1=O", "pIC50": 5.28}
{"smiles": "O=c1cc(C(Cl)(Cl)Cl)oc2c1ccc1ccccc12", "pIC50": 4.19}
{"smiles": "CCN(CC)c1ccc(/C=N/NC(=O)c2ccc3c(c2)OCCO3)cc1", "pIC50": 4.94}
